From patent US4000281A, “Pyrazole derivatives” (priority 1971, dated 1976)
In brackets after ≈: the same amount, converted by molar mass. Read-outs that look alike come from different tables or passages of the source.

Assays:
Influenza viruses = test: Mouse-Survival Test (Test No. 1), Influenza virus strain not given; assay type: in vivo, mice; conditions: unidentified influenza virus, 360 h
Influenza virus Jap 305 = test: Mouse-Survival Test (Test No. 1), Influenza Jap 305; assay type: in vivo, mice; conditions: for S.I.: significant if >1.24
[1] = system: Influenza virus Maryland B; test: Mouse-Survival Test (Test No. 1), Influenza Maryland B; assay type: in vivo, mice; conditions: for Survival Percent: virus dose 79 multiples of LD50; for S.I.: virus dose 79 multiples of LD50, significant if >1.24
Influenza virus Swine A = assay type: in vivo, mice; conditions: 500 mg/kg IP
Influenza PR8 = test: 48-Hour Mouse Test (Test No. 2), Influenza PR8; assay type: in vivo, mice; conditions: virus dose not ascertained, read-out: Log Reductions (EID50) as compared with controls
Influenza Jap 305 = test: 48-Hour Mouse Test (Test No. 2), Influenza Jap 305; assay type: in vivo, mice; conditions: read-out: Log Reductions (EID50) as compared with controls
Influenza Swine A = test: animal or person; assay type: in vivo, mice; conditions: in Mus musculus, 48 h, read-out: Log Reductions (EID50) as compared with controls
Influenza virus = assay type: in vivo, mice; conditions: for S.I. / Survival Percent / MDD (Mean Day of Death): intranasal 10% suspension, 25 multiples of LD50; for MDD (Mean Day of Death): virus alone 6.20
[2] = system: rhinovirus type 3 (prototype); test: Inhibition of rhinovirus cytopathogenic effect in human embryonic lung cultures, type 3; assay type: cell-based; conditions: 50 and 75 μgm/ml
Procedure: (§1) Other tests were carried out to determine the inhibitory effect of 3-(4-pyridyl)-4-(2-hydroxyphenyl)-5-ethylpyrazole on various types of rhinovirus.
(§2) In each test two cultures of human embryonic lung were prepared of which one was treated with the above compound while the other served as control. The cultures were then infected with a strain of rhinovirus. The compound was used in concentrations of 50 and 75 μgm/ml and was considered to be active if the cytopathogenic effect of the rhinovirus was reduced by at least 75% as compared to the control culture. This cytopathogenic effect was determined by counting the number of plaques formed by destroyed cells.
(§3) Seven human types of rhinovirus were employed and the following results registered: […]

[3] = system: rhinovirus type 5 (prototype); test: Inhibition of rhinovirus cytopathogenic effect in human embryonic lung cultures, type 5; assay type: cell-based; conditions: 50 and 75 μgm/ml
Procedure: as §1, §2, §3

[4] = system: rhinovirus type 6 (SF1349); test: Inhibition of rhinovirus cytopathogenic effect in human embryonic lung cultures, type 6; assay type: cell-based; conditions: 50 and 75 μgm/ml
Procedure: as §1, §2, §3

[5] = system: rhinovirus type 7 (SF1470); test: Inhibition of rhinovirus cytopathogenic effect in human embryonic lung cultures, type 7; assay type: cell-based; conditions: 50 and 75 μgm/ml
Procedure: as §1, §2, §3

[6] = system: rhinovirus type 8 (prototype); test: Inhibition of rhinovirus cytopathogenic effect in human embryonic lung cultures, type 8; assay type: cell-based; conditions: 50 and 75 μgm/ml
Procedure: as §1, §2, §3

[7] = system: rhinovirus type 9 (prototype); test: Inhibition of rhinovirus cytopathogenic effect in human embryonic lung cultures, type 9; assay type: cell-based; conditions: 50 and 75 μgm/ml
Procedure: as §1, §2, §3

[8] = system: rhinovirus type 14 (strain 1059); test: Gradient plate plaque-reduction technique in HeLa cells, rhinovirus type 14; assay type: cell-based, human; set-up: key to ACTIVITY: +: active; -: inactive
Procedure: (§4) A further series of tests was performed in which the inhibitory concentrations of 3-(4-pyridyl)-4-(2-hydroxyphenyl)-5-ethylpyrazole against various human types of rhinovirus were determined by the gradient plate plaque-reduction technique. Cultures of HeLa cancer cells were used of which two were prepared for each test. One culture was treated with the above compound which was applied in gradient while the other culture served as control. Both cultures were then infected with a human type of rhinovirus. The inhibitory concentration was determined by measuring the zone of inhibition on the cellsheet. Six types of rhinovirus were employed and the following results registered.

[9] = system: rhinovirus type 27 (strain Cor. 28); test: Gradient plate plaque-reduction technique in HeLa cells, rhinovirus type 27; assay type: cell-based, human; set-up: key to ACTIVITY: +: active
Procedure: as §4

[10] = system: rhinovirus type 39 (strain 209); test: Gradient plate plaque-reduction technique in HeLa cells, rhinovirus type 39; assay type: cell-based, human; set-up: key: +: active
Procedure: as §4

[11] = system: rhinovirus type 44 (strain F01 3744); test: Gradient plate plaque-reduction technique in HeLa cells, rhinovirus type 44; assay type: cell-based, human; set-up: key to ACTIVITY: +: active; -: inactive
Procedure: as §4

[12] = system: rhinovirus type 50 (strain A2 No.58); test: Gradient plate plaque-reduction technique in HeLa cells, rhinovirus type 50; assay type: cell-based, human; set-up: key: +: active
Procedure: as §4

[13] = system: rhinovirus type 55 (strain Wis 315E); test: Gradient plate plaque-reduction technique in HeLa cells, rhinovirus type 55; assay type: cell-based, human; set-up: key to ACTIVITY: +: active
Procedure: as §4

Herpes Simplex [14] = test: microbe, parasite or virus in culture; assay type: cell-based, rabbit; conditions: Oryctolagus cuniculus, 96 h; dose of 250 μg; virus pretreated with compound one hour; 50% considered significant; read-out: plaque-reduction
Herpes Simplex [15] = test: microbe, parasite or virus in culture; assay type: cell-based, rabbit; conditions: Oryctolagus cuniculus, 96 h; dose of 250 μg; tissue first infected, compound in overlay; 50% considered significant; read-out: plaque-reduction
Herpes = test: Herpes-induced keratitis in the rabbit eye; assay type: in vivo; conditions: local use, 2, 1 and 0.5%
Procedure: Another test was carried out with this same compound in order to evaluate its action against Herpes-induced keratitis in the rabbit eye.

[16] = ip, read-out: Survival Index (S.I.)
[17] = Jap 305, 5 mg/kg IP, virus dose 20 multiples of LD50
[18] = Jap 305, 50 mg/kg IP, virus dose 32 multiples of LD50
[19] = Jap 305, 50 mg/kg PO, virus dose 3.2 multiples of LD50
[20] = Jap 305, 500 mg/kg IP, virus dose 32 multiples of LD50
[21] = Jap 305, 500 mg/kg PO, virus dose 3.2 multiples of LD50
[22] = Enterovirus, read-out: MINIMUM INHIBITORY Concentration

CCc1[nH]nc(-c2ccncc2)c1-c1ccccc1O [Compound A, 3-(4-pyridyl)-4-(2-hydroxyphenyl)-5-ethylpyrazole]
response vs control in vivo at 50 mg/kg (Influenza viruses; [16]): 137% | response vs control in vivo at 500 mg/kg (Influenza viruses; [16]): 171% | responders at 50 mg/kg (Influenza viruses; ip, read-out: Survival Percent): 0% | responders at 500 mg/kg (Influenza viruses; ip, read-out: Survival Percent): 37.5% | response vs control in vivo at 500 mg/kg (Influenza viruses; po, read-out: Survival Index (S.I.)): 171% | responders at 500 mg/kg (Influenza viruses; po, read-out: Survival Percent): 33.3% | Survival Percent (Influenza virus Jap 305; [17]): 20% | S.I. (Influenza virus Jap 305; [17]): 1.34 | Survival Percent (Influenza virus Jap 305; [18]): 10% | S.I. (Influenza virus Jap 305; [18]): 1.34 | Survival Percent (Influenza virus Jap 305; [19]): 60% | S.I. (Influenza virus Jap 305; [19]): 1.43 | Survival Percent (Influenza virus Jap 305; [20]): 60% | S.I. (Influenza virus Jap 305; [20]): 2.04 | Survival Percent (Influenza virus Jap 305; [21]): 66% | S.I. (Influenza virus Jap 305; [21]): 1.43 | Survival Percent ([1]; 500 mg/kg IP): 10% | S.I. ([1]; 500 mg/kg IP): 1.47 | Survival Percent ([1]; 500 mg/kg PO): 12% | S.I. ([1]; 500 mg/kg PO): 1.52 | Survival Percent (Influenza virus Swine A; virus dose 14 multiples of LD50): 50% | S.I. (Influenza virus Swine A; virus dose 14 multiples of LD50, significant if >1.24): 1.52 | log reduction at 5 mg/kg (Influenza PR8; PR8, 5 mg/kg IP): 1.41 | log reduction at 50 mg/kg (Influenza PR8; PR8, 50 mg/kg IP): 1.69 | log reduction at 50 mg/kg (Influenza PR8; PR8, 50 mg/kg PO): 1.21 | log reduction at 500 mg/kg (Influenza PR8; PR8, 500 mg/kg IP): 1.87 | log reduction at 500 mg/kg (Influenza PR8; PR8, 500 mg/kg PO): 1.07 | log reduction at 50 mg/kg (Influenza Jap 305; ip): 1.53 | log reduction at 5 mg/kg (Influenza Jap 305; po): 2 | log reduction at 50 mg/kg (Influenza Jap 305; po): 2.7 | log reduction at 500 mg/kg (Influenza Jap 305; po): 2.5 | log reduction at 50 mg/kg (Influenza Swine A; ip): 1 | log reduction at 500 mg/kg (Influenza Swine A; ip): 1.8 | log reduction at 5 mg/kg (Influenza Swine A; po): 1.1 | log reduction at 50 mg/kg (Influenza Swine A; po): 1.4 | S.I. (Influenza virus; 30 min. before infection): 1.90 | Survival Percent (Influenza virus; 30 min. before infection): 40% | MDD (Mean Day of Death) (Influenza virus; 30 min. before infection): 11.80 days | S.I. (Influenza virus; 2 hr. before infection): 2.07 | Survival Percent (Influenza virus; 2 hr. before infection): 70% | MDD (Mean Day of Death) (Influenza virus; 2 hr. before infection): 12.80 days | S.I. (Influenza virus; 4 hr. before infection): 1.88 | Survival Percent (Influenza virus; 4 hr. before infection): 60% | MDD (Mean Day of Death) (Influenza virus; 4 hr. before infection): 11.70 days | S.I. (Influenza virus; 6 hr. before infection): 1.90 | Survival Percent (Influenza virus; 6 hr. before infection): 50% | MDD (Mean Day of Death) (Influenza virus; 6 hr. before infection): 11.80 days | persistence of the effect: differences between times of administration (Influenza virus; mouse, in vivo): no significant differences | protective effect (Influenza virus; mouse, in vivo): definite protective effect at all times of administration | survival period of the treated animals that did die, relative to controls (Influenza virus; mouse, in vivo): approximately twice that of the controls | ACTIVITY [2]: + (active) | ACTIVITY [3]: + (active) | ACTIVITY [4]: + (active) | ACTIVITY [5]: + (active) | ACTIVITY [6]: + (active) | ACTIVITY [7]: + (active) | ACTIVITY [8]: - | MIC [8, 22]: 30 µg/mL (≈ 113 µM) | ACTIVITY [9]: + | MIC [9, 22]: 15 to 16 µg/mL (≈ 56.5 to 60.3 µM) | ACTIVITY [10]: + | ACTIVITY [11]: - | MIC [11, 22]: 30 µg/mL (≈ 113 µM) | ACTIVITY [12]: + | ACTIVITY [13]: + | MIC [13, 22]: 20 µg/mL (≈ 75.4 µM) | inhibition at 250 µg (Herpes Simplex [14]): 60% | inhibition at 250 µg (Herpes Simplex [15]): 100% | formation of geographic keratitic lesions as compared to infected control animals (Herpes): inhibited the formation of geographic keratitic lesions
